According to patent US11773084B1, “4-arylamino-2-(6-indolylamino)pyrimidine compounds as antibacterial agents” (KING FAISAL UNIVERSITY, priority 2023, dated 2023):
In brackets after ≈: the same amount, converted by molar mass. Where two headings read alike, the source gives them in different places.

What was measured:
[1] = tested on: Staphylococcus aureus ATCC 29213; test: In vitro antibacterial activity (CLSI M07-A10 dilution MIC); assay type: cell-based; details: ATCC29213
[2] = tested on: Staphylococcus aureus ATCC BAA-1556 (MERSA resistant); test: as above; assay type: cell-based; details: ATCCBAA1556
[3] = tested on: Staphylococcus epidermidis; test: as above; assay type: cell-based
[4] = tested on: Bacillus subtilis MTCC 441; test: as above; assay type: cell-based; details: MTCC441
[5] = tested on: Enterococcus faecium ATCC 35667; test: as above; assay type: cell-based; details: ATCC35667
[6] = tested on: Enterococcus faecium ATCC 51559 (VRE resistant); test: as above; assay type: cell-based
[7] = tested on: Klebsiella pneumonia MTCC 618; test: as above; assay type: cell-based; details: Klebsiella pneumoniae, MTCC618
[8] = tested on: Escherichia coli MTCC 443; test: as above; assay type: cell-based
[9] = tested on: Mycobacterium tuberculosis H37Rv strain; test: Anti-tubercular alamar blue microplate MIC assay; assay type: cell-based; details: seven days 37° C.
[10] = biological target: T1, DNA gyrase from E. coli (Escherichia coli, UniProt P0AES4+P0AES6); test: E. coli DNA gyrase inhibition (Inspiralis assay); assay type: biochemical
T1 construct: purchased Inspiralis
T1 sequence (P0AES4 whole entry, one chain of several): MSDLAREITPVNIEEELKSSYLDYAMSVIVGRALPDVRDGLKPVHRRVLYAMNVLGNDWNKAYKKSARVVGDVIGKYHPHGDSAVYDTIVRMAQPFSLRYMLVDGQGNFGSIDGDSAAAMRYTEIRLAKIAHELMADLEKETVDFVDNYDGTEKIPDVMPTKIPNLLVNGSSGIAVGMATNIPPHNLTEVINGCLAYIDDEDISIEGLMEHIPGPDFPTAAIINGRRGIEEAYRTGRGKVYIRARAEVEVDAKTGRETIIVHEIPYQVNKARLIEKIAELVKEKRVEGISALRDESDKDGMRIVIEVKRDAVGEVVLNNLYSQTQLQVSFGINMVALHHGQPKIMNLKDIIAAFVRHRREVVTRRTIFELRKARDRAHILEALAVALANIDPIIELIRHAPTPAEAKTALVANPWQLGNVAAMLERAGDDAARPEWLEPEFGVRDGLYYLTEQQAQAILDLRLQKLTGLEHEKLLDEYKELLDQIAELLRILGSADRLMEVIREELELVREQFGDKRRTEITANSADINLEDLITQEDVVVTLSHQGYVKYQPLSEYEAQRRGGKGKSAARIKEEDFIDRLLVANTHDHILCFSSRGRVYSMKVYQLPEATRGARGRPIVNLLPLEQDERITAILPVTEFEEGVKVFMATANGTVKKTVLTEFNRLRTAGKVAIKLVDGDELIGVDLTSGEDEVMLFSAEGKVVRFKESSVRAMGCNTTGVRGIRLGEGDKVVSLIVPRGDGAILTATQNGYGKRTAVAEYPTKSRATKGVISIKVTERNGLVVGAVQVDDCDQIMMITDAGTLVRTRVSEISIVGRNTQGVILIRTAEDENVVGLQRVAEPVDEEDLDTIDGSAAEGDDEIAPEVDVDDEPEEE
Description: First, the plates were rehydrated with buffer (20 mM Tris-HCl with pH 7.6, 0.01% w/v BSA, 0.05% v/v Tween 20, 137 mM NaCl) and the biotinylated oligonucleotide was then immobilized. After washing off the unbound oligonucleotide, the enzyme test was performed. […] Reaction solutions were incubated at 37° C. for 30 min. After that, the TF buffer (50 mM NaOAc with pH 5.0, 50 mM NaCl and 50 mM MgCl2) was added to terminate the enzymatic reaction. After additional incubation for 30 min at rt, during which biotinoligonucleotide-plasmid triplex was formed, the unbound plasmid was washed off using TF buffer and SybrGOLD in T10 buffer (10 mM Tris HCl with pH 8.0 and 1 mM EDTA) was added. The fluorescence was measured with a microplate reader (BioTek Synergy H4, excitation: 485 nm, emission: 535 nm). […] GraphPad Prism software was used to calculate the IC50 values. The result is given as the average value of three independent measurements.

[11] = Escherichia coli MTCC 443 + PABN

In the case of `CCCCCN(C)Cc1cc(C(=O)O)ccc1Nc1ccnc(Nc2ccc3cc(C)[nH]c3c2)n1` [Example 8, 3-((methyl(pentyl)amino)methyl)-4-((2-((2-methyl-1H-indol-6-yl)amino)pyrimidin-4-yl)amino)benzoic acid], the MIC ([1]; Staphylococcus aureus ATCC 29213, read-out: MIC) is reported as 4 µg/mL (≈ 8.46 µM), the MIC ([2]; Staphylococcus aureus ATCC BAA-1556 (MERSA resistant), read-out: MIC) is reported as 4 µg/mL (≈ 8.46 µM) and the MIC ([3]; read-out: MIC) is reported as 8 µg/mL (≈ 16.9 µM). It also gave an MIC ([4]; Bacillus subtilis MTCC 441, read-out: MIC) of 2 µg/mL (≈ 4.23 µM), an MIC ([5]; Enterococcus faecium ATCC 35667, read-out: MIC) of 2 µg/mL (≈ 4.23 µM) and an MIC ([6]; Enterococcus faecium ATCC 51559 (VRE resistant), read-out: MIC) of 4 µg/mL (≈ 8.46 µM). The MIC ([7]; Klebsiella pneumonia MTCC 618, read-out: MIC) was 2 µg/mL (≈ 4.23 µM), the MIC [8, 11] was 2 µg/mL and the MIC ([8]; MTCC443, Escherichia coli MTCC 443, read-out: MIC) was 32 µg/mL (≈ 67.7 µM). The “anti-mycobacterial activity (MIC)” value [9] was 8 micro-g/mL and the IC50 [10] was 315 nM.
Work on `CN[C@H](CC(C)C)C(=O)N[C@H]1C(=O)N[C@@H](CC(N)=O)C(=O)N[C@H]2C(=O)N[C@H]3C(=O)N[C@H](C(=O)N[C@H](C(=O)O)c4cc(O)cc(O)c4-c4cc3ccc4O)[C@H](O)c3ccc(c(Cl)c3)Oc3cc2cc(c3O[C@@H]2O[C@H](CO)[C@@H](O)[C@H](O)[C@H]2O[C@H]2C[C@](C)(N)[C@H](O)[C@H](C)O2)Oc2ccc(cc2Cl)[C@H]1O` [Vancomycin, reference compound] yielded an MIC ([1]; Staphylococcus aureus) of 1 µg/mL (≈ 0.69 µM), an MIC ([2]; Staphylococcus aureus) of 1 µg/mL (≈ 0.69 µM) and an MIC [3] of 1 µg/mL (≈ 0.69 µM). For the same molecule, the MIC ([4]; Bacillus subtilis) was 0.5 µg/mL (≈ 0.345 µM), the MIC ([5]; Enterococcus faecium) was 0.5 µg/mL (≈ 0.345 µM) and the MIC ([6]; Enterococcus faecium) was > 128 µg/mL. For the same molecule, the MIC [7] was > 128 µg/mL, the MIC [8, 11] was >128 µg/mL and the MIC ([8]; Escherichia coli, MTCC443) was > 128 µg/mL.
